We go through five compounds from ChEMBL document CHEMBL1201862, “PubChem BioAssay data set” (2004).

Activity calls are given as the source filed them. A value given as a limit tells only on which side of the number the result lay.

Data set [1] has as its target T1, Replicative DNA helicase DnaB (Mycobacterium tuberculosis, UniProt P9WMR3).
T1 sequence (P9WMR3 whole entry): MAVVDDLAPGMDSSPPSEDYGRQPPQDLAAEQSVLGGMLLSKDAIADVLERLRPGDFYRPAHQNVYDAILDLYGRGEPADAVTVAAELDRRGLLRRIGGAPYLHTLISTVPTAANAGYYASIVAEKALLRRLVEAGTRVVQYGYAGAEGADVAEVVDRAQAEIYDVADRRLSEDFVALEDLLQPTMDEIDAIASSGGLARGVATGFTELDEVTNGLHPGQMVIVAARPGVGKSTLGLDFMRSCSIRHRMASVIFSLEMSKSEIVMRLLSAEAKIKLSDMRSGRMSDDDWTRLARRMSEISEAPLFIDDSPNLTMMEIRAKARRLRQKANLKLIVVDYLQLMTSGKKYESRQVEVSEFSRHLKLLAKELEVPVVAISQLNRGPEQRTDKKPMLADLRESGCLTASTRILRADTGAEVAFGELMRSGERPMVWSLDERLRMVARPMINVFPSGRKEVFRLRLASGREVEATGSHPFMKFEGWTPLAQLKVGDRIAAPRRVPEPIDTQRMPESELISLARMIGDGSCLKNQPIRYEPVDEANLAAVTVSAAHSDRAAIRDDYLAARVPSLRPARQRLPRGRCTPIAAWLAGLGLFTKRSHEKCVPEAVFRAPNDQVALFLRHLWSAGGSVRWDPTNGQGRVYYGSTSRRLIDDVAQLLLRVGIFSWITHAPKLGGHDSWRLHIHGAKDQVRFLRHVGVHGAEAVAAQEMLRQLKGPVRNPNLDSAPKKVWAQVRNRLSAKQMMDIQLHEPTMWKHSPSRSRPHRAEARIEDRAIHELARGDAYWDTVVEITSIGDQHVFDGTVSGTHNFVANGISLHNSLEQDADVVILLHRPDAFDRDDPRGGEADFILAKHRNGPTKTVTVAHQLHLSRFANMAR
The data set can be described thus: DnaB intein splicing inhibitors, dose response, biochemical, cell-free fluorescence (AID 449749). Format: functional.

Another data set has as its target T2, Protein RecA (Mycobacterium tuberculosis, UniProt P9WHJ3).
T2 sequence (P9WHJ3 whole entry): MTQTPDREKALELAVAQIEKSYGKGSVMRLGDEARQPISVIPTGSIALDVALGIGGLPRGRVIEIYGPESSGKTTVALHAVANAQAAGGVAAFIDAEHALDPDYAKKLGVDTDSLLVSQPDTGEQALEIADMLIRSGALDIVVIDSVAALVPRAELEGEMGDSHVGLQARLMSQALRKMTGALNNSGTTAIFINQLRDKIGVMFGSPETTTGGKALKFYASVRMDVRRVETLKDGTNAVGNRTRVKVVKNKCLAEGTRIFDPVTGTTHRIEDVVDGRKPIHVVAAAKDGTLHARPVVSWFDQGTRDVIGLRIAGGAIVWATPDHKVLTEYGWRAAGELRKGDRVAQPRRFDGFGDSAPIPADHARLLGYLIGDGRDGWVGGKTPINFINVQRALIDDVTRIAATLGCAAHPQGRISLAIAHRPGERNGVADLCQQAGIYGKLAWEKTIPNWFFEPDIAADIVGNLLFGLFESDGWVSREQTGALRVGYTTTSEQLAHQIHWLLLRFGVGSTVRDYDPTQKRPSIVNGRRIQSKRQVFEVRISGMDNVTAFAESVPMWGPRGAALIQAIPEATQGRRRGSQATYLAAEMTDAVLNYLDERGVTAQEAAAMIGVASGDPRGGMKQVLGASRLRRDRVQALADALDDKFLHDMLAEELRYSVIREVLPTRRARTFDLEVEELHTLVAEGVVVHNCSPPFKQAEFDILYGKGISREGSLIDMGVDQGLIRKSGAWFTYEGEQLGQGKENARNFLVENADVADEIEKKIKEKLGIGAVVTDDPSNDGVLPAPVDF
Briefly: Fluorescence Cell-Free Homogeneous Dose Retest to Identify Inhibitors of RecA-Intein Splicing Activity. [Related pubchem assays (depositor defined):AID2097, AID2223, AID489010, AID492950]. It is filed as functional.

The target in data set [2] is T3, G-protein coupled receptor 55 (Homo sapiens, UniProt Q9Y2T6). Briefly: GPR55 antagonists, SAR follow-up, counter-screen for GPR35 antagonist project, imaging, image-based (AID 2397). It is filed as functional.
For the next data set, the system named is Vero. Briefly: host cell cytotoxicity of antiviral hits, dose response, cytotoxicity control for West Nile virus antiviral project, secondary assay (AID 1650). It is filed as functional. The following applies: Chlorocebus sabaeus.
The target of data set [3] is T3, G-protein coupled receptor 55. The data set can be described thus: GPR55 agonists via beta-arrestin recruitment, primary screen, imaging, U2OS cells, beta-arrestin-GFP redistribution (AID 1961). Format: functional.
Data set [4] has the same target. The data set can be described thus: SAR analysis of selective Agonists of GPR55 using an Image-Based Assay. [Related pubchem assays (depositor defined):AID1961, AID1965]. Format: functional.
The next data set concerns the target Cannabinoid receptor 1 (Homo sapiens, UniProt P21554). The data set can be described thus: SAR analysis of antagonists of the Cannabinoid Receptor 1 using an Image-Based Assay. [Related pubchem assays (depositor defined):AID1961, AID1965]. Format: functional.
Data set [5] addresses T4, Cannabinoid receptor 2 (Homo sapiens, UniProt P34972). The data set can be described thus: SAR analysis of antagonists of the Cannabinoid Receptor 2 using an Image-Based Assay - Set 2. [Related pubchem assays (depositor defined):AID1961, AID1965]. It is filed as functional.
Data set [6] has as its target T4, Cannabinoid receptor 2. Briefly: SAR analysis of agonists of the Cannabinoid Receptor 2 using an Image-Based Assay - Set 2. [Related pubchem assays (depositor defined):AID1961, AID1965]. Format: functional.
The target of data set [7] is Nucleotide-binding oligomerization domain-containing protein 2 (Homo sapiens, UniProt Q9HC29). The data set can be described thus: NOD2 signaling inhibitors, analog potency, SAR follow-up, cell-based, set 3 (AID 2799). Format: functional.
The target of data set [8] is T5, Bcl-2-related protein A1 (Mus musculus, UniProt Q07440).
T5 sequence (Q07440 whole entry): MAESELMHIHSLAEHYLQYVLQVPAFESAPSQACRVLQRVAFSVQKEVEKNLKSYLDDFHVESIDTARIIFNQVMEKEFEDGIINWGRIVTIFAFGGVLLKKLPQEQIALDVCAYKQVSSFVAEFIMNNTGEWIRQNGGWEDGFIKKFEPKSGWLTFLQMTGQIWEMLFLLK
The data set can be described thus: Bfl-1 binding inhibitors, SAR follow-up, biochemical, fluorescence polarization (AID 1070). On the technique in general: Fluorescence polarisation rises when a labelled molecule tumbles more slowly, as on binding a larger partner.

For data set [9], the target named is Glyceraldehyde-3-phosphate dehydrogenase (Homo sapiens, UniProt P04406).
In the next data set the target is Tumor necrosis factor (Homo sapiens, UniProt P01375). The data set can be described thus: TNFa-triggered NF-kB activation inhibitors, SAR follow-up, cell-based, set 3 (AID 2801). It is filed as functional.
Another data set concerns HEK293. The data set can be described thus: SAR analysis of compounds that are cytotoxic to HEK293 - Set 3. [Related pubchem assays (depositor defined):AID1575, AID1578, AID1848, AID1849, AID2001, AID2333, AID2334, AID2335, AID2337, AID2469]. It is filed as functional, cell-based. Conditions: Homo sapiens.
Data set [10] has as its target Nucleotide-binding oligomerization domain-containing protein 1 (Homo sapiens, UniProt Q9Y239). Briefly: SAR analysis of compounds that inhibit NOD1 - Set 3. [Related pubchem assays (depositor defined):AID1566, AID1575, AID1578, AID1849, AID1852, AID2333, AID2335, AID2466]. Format: functional.
For data set [11], the target named is T5, Bcl-2-related protein A1. Briefly: Bfl-1 inhibitors blocking BH3 peptide binding, confirmation, biochemical, TR-FRET, mouse Bfl-1 (AID 621).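 Further: TR-FRET binding of GST-Bfl-1 to FITC-labelled Bid peptide via terbium antibody.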 In general terms: Time-resolved FRET reads energy transfer from a long-lived donor to a nearby acceptor.
Data set [12] is described as follows: LGR2 antagonists, dose response, cell-based, HEK293, CRE-luciferase reporter, cherry pick, set 2 (AID 743343).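 Further: transfected cells were stimulated with diluted bursicon conditioned medium after compound addition.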 It is filed as functional.
A short description of data set [13]: Late stage assay provider results from the probe development effort to identify inhibitors of Protein Phosphatase Methylesterase 1 (PME-1): luminescence-based biochemical dose response assay to determine cytotoxicity of inhibitor compounds. [Related pubchem assays (depositor defined):AID2130, AID2143, AID2171, AID2174, AID2177, AID2232, AID2233, AID2291, AID2363, AID2365, AID2366, AID2368, AID2369, AID2371, AID463124, AID463130, AID463131, AID463132, AID463146, AID463149] Panel member name: Fetal Calf Serum. It is filed as toxicity.

The nature of data set [14]: A549 cell cytotoxicity, dose response, cytotoxicity control, plate reader, cherry-pick, antagonist series (AID 743412). It is filed as functional, cell-based.
Data set [15] in a line: Luminescence Cell-Based Dose Retest to Confirm Inhibitors of Cancer Stem Cells. [Related pubchem assays (depositor defined):AID2717, AID2721]. It is filed as functional. The following applies: Homo sapiens.
Data set [16] in a line: HEK293 cell cytotoxicity, dose response, cytotoxicity control, plate reader, cherry-picked samples (AID 743446). It is filed as functional, cell-based.
A short description of data set [17]: Late stage assay provider results from the probe development effort to identify inhibitors of Protein Phosphatase Methylesterase 1 (PME-1): luminescence-based […] dose response assay to determine cytotoxicity of inhibitor compounds. [Related pubchem assays (depositor defined):AID2130, AID2143, AID2171, AID2174, AID2177, AID2232, AID2233, AID2291, AID2363, AID2365, AID2366, AID2368, AID2369, AID2371, AID463124, AID463130, AID463131, AID463132, AID463146, AID463149] Panel member name: Serum-free Media. Format: toxicity.

Data set [18] is described as follows: HepG2 cell cytotoxicity, dose response, cytotoxicity control, plate reader, cherry-pick, antagonist series (AID 743416). Format: functional, cell-based.
Data set [19] can be described thus: MC4R antagonists, dose response, counter-screen for LGR2 antagonist project, cell-based, plate reader, cherry pick (AID 743444).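 Further: transfected HEK 293 cells stimulated with alpha-MSH peptide; potency of inhibitors of the alpha-MSH evoked signal.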 Format: functional. (In general: A counterscreen serves to expose hits that act by an unwanted route or on another target.)
The target of data set [20] is Voltage-dependent T-type calcium channel subunit alpha-1H (Homo sapiens, UniProt O95180). Briefly: Cav3.2 T-type channel blockers, cell-based, SynthLib3 library, HEK293 Cav3.2, fluorescence (AID 493041). It is filed as functional.
Voltage-dependent T-type calcium channel subunit alpha-1H, sequence (O95180 whole entry): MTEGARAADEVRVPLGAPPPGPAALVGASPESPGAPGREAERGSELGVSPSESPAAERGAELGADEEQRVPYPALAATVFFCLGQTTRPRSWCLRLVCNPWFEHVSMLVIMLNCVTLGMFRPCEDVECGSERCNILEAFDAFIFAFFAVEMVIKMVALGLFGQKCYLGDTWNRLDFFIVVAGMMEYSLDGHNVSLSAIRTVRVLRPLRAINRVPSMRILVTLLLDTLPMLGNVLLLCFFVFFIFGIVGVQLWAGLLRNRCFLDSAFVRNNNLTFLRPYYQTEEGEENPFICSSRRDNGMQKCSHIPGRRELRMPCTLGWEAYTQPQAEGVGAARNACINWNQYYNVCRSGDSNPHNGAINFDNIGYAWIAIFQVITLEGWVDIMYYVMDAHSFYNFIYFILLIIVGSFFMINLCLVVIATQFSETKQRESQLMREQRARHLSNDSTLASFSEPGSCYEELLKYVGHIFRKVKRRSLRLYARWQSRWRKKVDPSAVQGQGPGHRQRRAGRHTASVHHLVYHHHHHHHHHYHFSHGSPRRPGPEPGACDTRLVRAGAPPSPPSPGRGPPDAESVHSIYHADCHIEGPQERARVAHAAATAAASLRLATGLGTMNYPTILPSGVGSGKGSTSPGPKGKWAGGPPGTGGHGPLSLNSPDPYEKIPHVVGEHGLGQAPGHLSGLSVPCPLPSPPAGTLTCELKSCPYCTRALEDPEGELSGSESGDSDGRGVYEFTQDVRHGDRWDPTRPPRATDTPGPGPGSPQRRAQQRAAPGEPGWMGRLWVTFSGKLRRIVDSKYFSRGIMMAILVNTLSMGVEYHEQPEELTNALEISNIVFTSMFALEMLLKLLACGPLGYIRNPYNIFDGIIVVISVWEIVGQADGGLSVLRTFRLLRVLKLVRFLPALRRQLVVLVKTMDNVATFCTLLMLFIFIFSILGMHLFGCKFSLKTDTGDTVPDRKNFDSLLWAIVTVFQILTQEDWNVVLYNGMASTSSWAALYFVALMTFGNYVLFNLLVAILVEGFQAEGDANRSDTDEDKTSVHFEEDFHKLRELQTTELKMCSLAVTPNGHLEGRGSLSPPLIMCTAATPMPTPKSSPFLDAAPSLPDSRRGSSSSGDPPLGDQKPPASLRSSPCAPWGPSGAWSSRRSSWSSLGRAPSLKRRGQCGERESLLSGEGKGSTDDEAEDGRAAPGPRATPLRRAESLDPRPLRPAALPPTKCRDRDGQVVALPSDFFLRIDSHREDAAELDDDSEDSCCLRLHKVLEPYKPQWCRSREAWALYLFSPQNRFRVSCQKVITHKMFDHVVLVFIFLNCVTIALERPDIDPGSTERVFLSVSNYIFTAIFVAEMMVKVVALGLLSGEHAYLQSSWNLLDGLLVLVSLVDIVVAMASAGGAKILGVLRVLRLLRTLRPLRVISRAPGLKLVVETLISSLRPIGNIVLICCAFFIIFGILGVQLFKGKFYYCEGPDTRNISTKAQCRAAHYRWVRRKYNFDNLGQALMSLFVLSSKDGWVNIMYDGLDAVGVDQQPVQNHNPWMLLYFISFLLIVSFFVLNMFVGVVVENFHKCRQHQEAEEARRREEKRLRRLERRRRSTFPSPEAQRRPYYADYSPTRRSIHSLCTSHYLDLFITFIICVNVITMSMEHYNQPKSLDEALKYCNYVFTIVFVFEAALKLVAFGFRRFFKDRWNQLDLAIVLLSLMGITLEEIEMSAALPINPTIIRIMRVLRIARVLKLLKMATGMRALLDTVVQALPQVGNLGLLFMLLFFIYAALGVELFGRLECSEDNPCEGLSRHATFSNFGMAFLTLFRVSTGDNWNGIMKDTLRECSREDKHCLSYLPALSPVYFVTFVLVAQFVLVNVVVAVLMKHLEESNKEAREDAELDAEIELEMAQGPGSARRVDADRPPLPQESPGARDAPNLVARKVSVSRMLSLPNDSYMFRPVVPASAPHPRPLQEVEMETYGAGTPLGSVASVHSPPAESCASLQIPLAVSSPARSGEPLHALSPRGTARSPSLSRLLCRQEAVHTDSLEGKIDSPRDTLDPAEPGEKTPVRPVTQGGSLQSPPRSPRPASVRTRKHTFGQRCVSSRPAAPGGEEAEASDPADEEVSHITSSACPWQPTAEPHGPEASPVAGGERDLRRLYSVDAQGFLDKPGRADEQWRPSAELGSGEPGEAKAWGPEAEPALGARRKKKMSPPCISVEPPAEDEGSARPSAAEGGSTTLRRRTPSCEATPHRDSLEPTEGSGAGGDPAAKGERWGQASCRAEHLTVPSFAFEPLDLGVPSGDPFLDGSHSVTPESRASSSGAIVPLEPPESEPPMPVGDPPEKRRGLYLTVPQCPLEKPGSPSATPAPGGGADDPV

T3 sequence (Q9Y2T6 whole entry): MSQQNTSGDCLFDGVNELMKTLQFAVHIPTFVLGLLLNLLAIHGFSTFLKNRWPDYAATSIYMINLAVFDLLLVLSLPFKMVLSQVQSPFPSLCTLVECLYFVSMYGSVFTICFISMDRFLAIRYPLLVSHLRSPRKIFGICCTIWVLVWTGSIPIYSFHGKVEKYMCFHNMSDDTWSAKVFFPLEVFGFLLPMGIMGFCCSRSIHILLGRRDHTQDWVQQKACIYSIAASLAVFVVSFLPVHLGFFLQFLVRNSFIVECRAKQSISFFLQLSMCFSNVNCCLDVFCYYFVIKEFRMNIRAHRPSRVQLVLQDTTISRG
T4 sequence (P34972 whole entry): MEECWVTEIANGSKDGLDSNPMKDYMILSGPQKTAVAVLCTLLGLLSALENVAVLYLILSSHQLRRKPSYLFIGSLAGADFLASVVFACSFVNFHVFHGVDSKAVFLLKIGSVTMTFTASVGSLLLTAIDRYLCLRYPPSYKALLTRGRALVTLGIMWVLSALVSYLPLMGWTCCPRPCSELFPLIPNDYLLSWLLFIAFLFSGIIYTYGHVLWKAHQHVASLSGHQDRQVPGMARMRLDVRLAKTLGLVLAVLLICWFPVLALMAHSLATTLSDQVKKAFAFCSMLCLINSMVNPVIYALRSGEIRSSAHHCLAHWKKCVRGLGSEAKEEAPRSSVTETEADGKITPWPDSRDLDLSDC
Nucleotide-binding oligomerization domain-containing protein 1, sequence (Q9Y239 whole entry, the tested form may be a part): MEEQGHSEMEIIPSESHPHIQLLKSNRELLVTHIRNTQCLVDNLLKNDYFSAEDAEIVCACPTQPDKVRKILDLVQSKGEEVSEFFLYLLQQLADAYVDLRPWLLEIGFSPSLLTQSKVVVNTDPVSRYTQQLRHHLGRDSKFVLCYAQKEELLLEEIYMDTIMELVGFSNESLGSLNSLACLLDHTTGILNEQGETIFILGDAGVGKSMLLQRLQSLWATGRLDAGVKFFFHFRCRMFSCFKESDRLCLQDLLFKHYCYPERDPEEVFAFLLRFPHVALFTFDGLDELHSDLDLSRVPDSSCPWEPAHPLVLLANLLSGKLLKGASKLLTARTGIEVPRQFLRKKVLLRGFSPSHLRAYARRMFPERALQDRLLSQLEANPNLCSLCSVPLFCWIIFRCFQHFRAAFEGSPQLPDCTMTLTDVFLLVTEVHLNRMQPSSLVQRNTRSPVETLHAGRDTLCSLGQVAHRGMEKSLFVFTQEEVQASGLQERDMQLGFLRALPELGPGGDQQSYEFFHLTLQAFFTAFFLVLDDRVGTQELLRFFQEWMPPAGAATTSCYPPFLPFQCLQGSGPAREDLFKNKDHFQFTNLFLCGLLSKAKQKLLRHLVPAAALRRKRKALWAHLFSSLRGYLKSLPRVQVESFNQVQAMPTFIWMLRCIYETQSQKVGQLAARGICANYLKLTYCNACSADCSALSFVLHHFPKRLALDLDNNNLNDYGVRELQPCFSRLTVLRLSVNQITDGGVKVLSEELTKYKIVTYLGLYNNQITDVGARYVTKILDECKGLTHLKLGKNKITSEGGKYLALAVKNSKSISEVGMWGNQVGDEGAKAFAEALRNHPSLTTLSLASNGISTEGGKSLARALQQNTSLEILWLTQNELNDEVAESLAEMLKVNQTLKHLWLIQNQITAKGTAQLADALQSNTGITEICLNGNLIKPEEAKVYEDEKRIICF
Tumor necrosis factor, sequence (P01375 whole entry): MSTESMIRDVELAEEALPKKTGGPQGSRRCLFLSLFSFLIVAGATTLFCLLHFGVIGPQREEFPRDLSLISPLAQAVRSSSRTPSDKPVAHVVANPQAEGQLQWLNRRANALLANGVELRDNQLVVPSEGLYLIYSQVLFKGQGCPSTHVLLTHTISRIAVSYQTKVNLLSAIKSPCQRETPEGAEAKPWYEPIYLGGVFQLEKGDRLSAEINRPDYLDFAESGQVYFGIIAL
Glyceraldehyde-3-phosphate dehydrogenase, sequence (P04406 whole entry): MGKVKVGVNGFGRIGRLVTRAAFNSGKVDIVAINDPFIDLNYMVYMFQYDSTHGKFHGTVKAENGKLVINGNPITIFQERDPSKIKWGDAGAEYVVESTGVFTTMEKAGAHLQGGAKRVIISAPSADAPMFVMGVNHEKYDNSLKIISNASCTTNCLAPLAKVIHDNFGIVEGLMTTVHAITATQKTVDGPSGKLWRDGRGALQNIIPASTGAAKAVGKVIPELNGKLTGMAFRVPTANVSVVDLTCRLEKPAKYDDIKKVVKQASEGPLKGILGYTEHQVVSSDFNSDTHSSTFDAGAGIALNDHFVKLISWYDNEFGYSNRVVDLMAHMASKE
Cannabinoid receptor 1, sequence (P21554 whole entry): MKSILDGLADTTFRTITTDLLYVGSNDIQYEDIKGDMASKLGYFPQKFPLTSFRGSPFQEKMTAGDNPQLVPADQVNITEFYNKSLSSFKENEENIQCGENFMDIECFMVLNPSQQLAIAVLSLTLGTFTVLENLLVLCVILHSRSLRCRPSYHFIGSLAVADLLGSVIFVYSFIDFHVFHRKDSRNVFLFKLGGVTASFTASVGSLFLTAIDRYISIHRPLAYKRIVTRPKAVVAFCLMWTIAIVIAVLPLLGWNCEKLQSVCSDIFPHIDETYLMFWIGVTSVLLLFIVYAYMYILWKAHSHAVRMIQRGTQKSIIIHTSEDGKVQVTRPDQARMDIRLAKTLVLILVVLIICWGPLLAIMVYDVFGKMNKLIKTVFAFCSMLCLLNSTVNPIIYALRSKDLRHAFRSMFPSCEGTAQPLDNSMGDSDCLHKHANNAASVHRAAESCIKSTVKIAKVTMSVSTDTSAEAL

Turning to `O=C(CCCN1C(=O)/C(=C/c2ccccc2)SC1=S)Nc1ccc(O)cc1`, the AC50 (usually the concentration at which the activity in the assay is half-maximal) in data set [1] is 12 µM (active). In addition, the EC50 (usually the concentration needed to bring the measured effect to its halfway point) on Protein RecA was > 380 µM (inactive). Also, the IC50 (commonly the midpoint of a concentration-inhibition curve) in data set [2] was > 32 µM (inactive). In addition, the CC50 (commonly the concentration giving 50% cytotoxicity) in the data set with Vero was 60 µM (active).

In the case of `CC(Sc1nc2cc(Cl)ccc2s1)C(=O)Nc1cccc(S(=O)(=O)N2CCOCC2)c1` (configuration not stated), the figures for the 50% effective concentration (EC50) (in data set [3]; in data set [4]; on Cannabinoid receptor 2 [6]) were 0.961 µM (active), 0.761 µM (active) and > 32 µM (inactive), respectively. For the same compound, the IC50 at Cannabinoid receptor 1 and at Cannabinoid receptor 2 [5] was > 32 µM (inactive) throughout.

Consider `COc1ccc(-c2cc(N)n(S(=O)(=O)c3ccc(F)cc3)n2)cc1OC`, for which the IC50 in data set [7] is > 20 µM (inactive); on Bcl-2-related protein A1 [8], > 100 µM (not active); in [9], > 100 µM (not active); on Tumor necrosis factor, > 20 µM (inactive); in the data set on HEK293, > 20 µM (inactive); in [10], > 20 µM (inactive). For the same compound, the IC50 at Bcl-2-related protein A1 [11] was > 100 µM (not active).

With `CCOC(=O)N1C(=O)[C@@](c2ccc(Cl)cc2)(C(C)C)N1C(=O)OCC`, the half-maximal activity concentration (AC50) was 17.3 µM (active) in data set [12]; 7.28 µM (active) in [1]; 22.4 µM (active) in [14]; 3.99 µM (active) in data set [15]; 49.1 µM (active) in [16]; 40.9 µM (active) in data set [18]. The AC50 in [19] was 26.6 µM (active). Also, the CC50 in data set [13] and in data set [17] was > 10 µM (inactive) throughout. Also, the concentration for a half-maximal effect (EC50) on Protein RecA was 16.2 µM (active).

For the compound `CC(C)CCc1nnc(NC(=O)COc2ccc(F)cc2Cl)o1`, in [20], the concentration for a half-maximal effect (EC50) is 10 µM (active).
